In paper PMC12122380 (2025) one finds binding and KM data, which are given here for eight compounds.

A word on the KM: it is the concentration of substrate that gives half-maximal velocity.

The test system of assay [1] is Pepper (RNA, aptamer) GGCGCACUGGCGCUGCGCCUUCGGGCGCCAAUCGUAGCGUGUCGGCGCC
Briefly: AE-HPLC, FT-ICR mass spectrometry of covalent adduct. The note with it: K+ 150 mM, Mg2+ 2 mM; covalent at G41; 50 mM MES pH 6.0, 37 °C; no crosslinking without Mg2+.

The test system of assay [2] is Tt wt preQ1 RNA aptamer (RNA, riboswitch) CUGGGUCGCAGUAACCCCAGUUAACAAAACAAG
Briefly: AE-HPLC alkylation kinetics, Michaelis-Menten fit. The settings on record: K+ (KCl); covalent; apparent; MES pH 6.0, 37 °C.

Assay [3] concerns Pepper (RNA, aptamer) GGCGCACUGGCGCUGCGCCUUCGGGCGCCAAUCGUAGCGUGUCGGCGCC
Briefly: AE-HPLC of covalent adduct. The settings on record: K+ 150 mM, Mg2+ 2 mM, 50 mM MES pH 6.0, 15% DMSO, 37 °C, 50 µM ligand.

The test system is the same in assay [4]. Briefly: covalent adduct formation, fluorescence. The note with it: K+, Mg2+.
Assay [5] relates to 155 nt (Szostak) self-biotinylating ribozyme (RNA, ribozyme) GGAGGCACCACGGCUGGAUCCGGUUUAUUAUCAUGAGCCCGACUCGGGCAGCACUGUACAUAAGCUCGGAUGCCAUAGUUUAGACACUAUGGACGUAAAGCCCAUGCUAGGCAAAGACAUUGACUGCAUGAGCGCCGCCUUGGUCAUUAGGAUCG
Briefly: PAGE, streptavidin blot of covalent adduct. The note with it: K+ 100 mM, Mg2+ 5 mM, 50 mM HEPES pH 7.4, 37 °C, 1 mM or 50 µM ligand.

The subject of assay [6] is 58 nt (Liu) self-biotinylating ribozyme (RNA, ribozyme) GGCCGCUCCAGAAGAGGGCCCCCUUGCCCGUUAUCGGGGGCUAGGCUCGAUGUCGGCC
Briefly: RP-HPLC of covalent adduct. The settings on record: K+ 100 mM, Mg2+ 5 mM, 50 mM HEPES pH 7.4, 37 °C, 2.5 mM ligand.

Assay [7] has the same test system. As to the kind of experiment: PAGE, streptavidin blot of covalent adduct. The note with it: K+ 100 mM, Mg2+ 5 mM, 50 mM HEPES pH 7.4, 37 °C, 1 mM ligand, 5 h.
The subject of assay [8] is Pepper (RNA, aptamer) GGCGCACUGGCGCUGCGCCUUCGGGCGCCAAUCGUAGCGUGUCGGCGCC
Briefly: fluorescence emission. The note with it: K+ 100 mM, Mg2+ 2 mM; 50 mM MES pH 6.0; 0.5 µM RNA, 0.5 µM HBC; noncovalent.

For assay [9], the system named is Tt C15U preQ1 RNA aptamer (RNA, riboswitch) CUGGGUCGCAGUAAUCCCAGUUAACAAAACAAG
As to the kind of experiment: AE-HPLC of covalent adduct. The note with it: K+ 100 mM, Mg2+ 2 mM, 50 mM MES pH 6.0, 37 °C, 48 h, 125 µM ligand.

In the case of `CN(CCCOS(C)(=O)=O)c1ccc(/C=C(\C#N)c2ccc(C#N)cc2)cc1`, the binding result in assay [1] is recorded as “yes”.

In the case of `Nc1nc(N)c2c(CNCCCBr)c[nH]c2n1`, the KM in assay [2] was 0.162 ± 0.016 µM.

For `CN(CCCBr)c1ccc(/C=C(\C#N)c2ccc(C#N)cc2)cc1`, in [3], the binding result is listed as “yes”. Consider `C=Cc1ccc(/C(C#N)=C/c2ccc(N(C)CCCOS(C)(=O)=O)cc2)cc1`, for which the binding entry in [4] is listed as “yes”. For the compound `O=C(CI)NCCNC(=O)CCCC[C@@H]1SC[C@@H]2NC(=O)N[C@@H]21`, the binding result in assay [5] was “yes”. Take `O=C1N[C@H]2[C@H](CS[C@H]2CCCCC(=O)OCCOCCCCBr)N1`: the binding result in assay [6] and in assay [7] was “yes” each time.

Turning to `CN(CCO)c1ccc(/C=C(\C#N)c2ccc(C#N)cc2)cc1`, the binding entry in assay [8] is “yes”. For the compound `Nc1nc2[nH]cc(CNCCCBr)c2c(=O)[nH]1`, in assay [9], the binding result is “yes”.
